Assay results as given in patent US4083993A, “Compositions containing benzoylacetonitrile and method of use to treat inflammation” (American Cyanamid Co., priority 1977, dated 1978).

Tested on: adjuvant induced arthritis
Assay: adjuvant induced arthritis in rats (Freund's adjuvant, injected right hind paw; chronic inflammation with joint destruction)
Assay type: in vivo, royal Hart, Wistar strain rats
Conditions: oral, once daily days 0-13
Experimental: Groups of three royal Hart, Wistar strain rats weighing 200+10 grams each were injected intradermally in the right hind paw with Freund's adjuvant (dried human tubercle bacilli in a mineral oil vehicle) at a dose of 2 mg./kg. of body weight. Test compounds were administered orally in a 1.5% starch vehicle at various doses once daily on days 0 through 13 post challenge. Control rats were treated in a similar manner, but given only starch vehicle. On the 14th and 21st day post challenge the diameter of the injected paw (primary lesion) was measured by micrometer caliper. The volume of inflamed paws were estimated from these measurements and the results are expressed as percent inhibition of swelling as compared to controls. At the same time, the other inflamed sites, such as ears, paws and tail (secondary lesions) were observed and each rat was graded as to degree of inflammation and swelling present. The grading is based on a scale of 0 to 24, where 0 represents a complete absence of induced arthritic nodules and 24 represents the maximum degree of inflammation. The mean grade for each treated group is calculated and the effects of each compound are expressed as percent inhibition of the control grade. Table I records the results of these tests conducted with benzoylacetonitrile, o-fluorobenzoylacetonitrile, m-fluorobenzoylacetonitrile, p-fluorobenzoylacetonitrile, and known anti-inflammatory agents. The active compounds of the present invention suppress the progression of the arthritis and associated joint deterioration.

[1] = 25 mg./kg. of body weight, day 14
[2] = 25 mg./kg. of body weight, day 21
[3] = 50 mg./kg. of body weight, day 14
[4] = 50 mg./kg. of body weight, day 21
[5] = 100 mg./kg. of body weight, day 14
[6] = 100 mg./kg. of body weight, day 21
[7] = 200 mg./kg. of body weight, day 14
[8] = 200 mg./kg. of body weight, day 21
[9] = 400 mg./kg. of body weight, day 14
[10] = 400 mg./kg. of body weight, day 21

Structure (SMILES)	Dead/Treated At 21 Days (25 mg./kg. of body weight)	% Inhibition of Control Grade (secondary lesion) [1] [%]	% Inhibition of Swelling (primary lesion) [1] [%]	Mean Weight Gain [1] [grams]	% Inhibition of Control Grade (secondary lesion) [2] [%]	% Inhibition of Swelling (primary lesion) [2] [%]	Mean Weight Gain [2] [grams]	Dead/Treated At 21 Days (50 mg./kg. of body weight)	% Inhibition of Control Grade (secondary lesion) [3] [%]	% Inhibition of Swelling (primary lesion) [3] [%]	Mean Weight Gain [3] [grams]	% Inhibition of Control Grade (secondary lesion) [4] [%]	% Inhibition of Swelling (primary lesion) [4] [%]	Mean Weight Gain [4] [grams]	Dead/Treated At 21 Days (100 mg./kg. of body weight)	% Inhibition of Control Grade (secondary lesion) [5] [%]	% Inhibition of Swelling (primary lesion) [5] [%]	Mean Weight Gain [5] [grams]	% Inhibition of Control Grade (secondary lesion) [6] [%]	% Inhibition of Swelling (primary lesion) [6] [%]	also measured
N#CCC(=O)c1ccc(F)cc1 [p-Fluorobenzoylacetonitrile, p-fluorobenzoylacetonitrile]	1/18	25	33	55	0	17	48	2/36	13	56	61	0	39	58	4/18	44	46	63	10	32	Mean Weight Gain [6]: 71 grams; Dead/Treated At 21 Days (200 mg./kg. of body weight): 3/18; % Inhibition of Control Grade (secondary lesion) [7]: 63%; % Inhibition of Swelling (primary lesion) [7]: 52%; Mean Weight Gain [7]: 67 grams; % Inhibition of Control Grade (secondary lesion) [8]: 16%; % Inhibition of Swelling (primary lesion) [8]: 32%; Mean Weight Gain [8]: 62 grams; Dead/Treated At 21 Days (400 mg./kg. of body weight): 3/18; % Inhibition of Control Grade (secondary lesion) [9]: 72%; % Inhibition of Swelling (primary lesion) [9]: 75%; Mean Weight Gain [9]: 42 grams; % Inhibition of Control Grade (secondary lesion) [10]: 45%; % Inhibition of Swelling (primary lesion) [10]: 63%; Mean Weight Gain [10]: 64 grams
N#CCC(=O)c1ccccc1F [o-Fluorobenzoylacetonitrile, o-fluorobenzoylacetonitrile]								1/18		63	71		49	72							
N#CCC(=O)c1ccccc1 [Benzoylacetonitrile, benzoylacetonitrile]	3/36	40	54	54	14	33	56	6/54	52	51	53	26	42	59	5/36	70	63	49	43	48	Mean Weight Gain [6]: 65 grams; Dead/Treated At 21 Days (200 mg./kg. of body weight): 2/18; % Inhibition of Control Grade (secondary lesion) [7]: 70%; % Inhibition of Swelling (primary lesion) [7]: 73%; Mean Weight Gain [7]: 56 grams; % Inhibition of Control Grade (secondary lesion) [8]: 43%; % Inhibition of Swelling (primary lesion) [8]: 48%; Mean Weight Gain [8]: 81 grams; Dead/Treated At 21 Days (400 mg./kg. of body weight): 3/18; % Inhibition of Control Grade (secondary lesion) [9]: 84%; % Inhibition of Swelling (primary lesion) [9]: 81%; Mean Weight Gain [9]: 31 grams; % Inhibition of Control Grade (secondary lesion) [10]: 82%; % Inhibition of Swelling (primary lesion) [10]: 72%; Mean Weight Gain [10]: 72 grams
N#CCC(=O)c1cccc(F)c1 [m-Fluorobenzoylacetonitrile, m-fluorobenzoylacetonitrile]								0/21		40	43		27	37							
